Assay results from patent publication US11225482B2, “Dihydropyrrolopyrimidines for the treatment and prophylaxis of hepatitis B virus infection” (Hoffmann-La Roche Inc., priority 2017, dated 2022).

Tests used:
[1] = tested on: HBsAg; experiment: HBsAg assay (CLIA) in HepG2.2.15 cells; format: cell-based, HBV; details: Hepatitis B virus, HepG2.2.15, read-out: IC50 (HBsAg assay)
Protocol: (§1) HepG2.2.15 cells (Acs et al. Proc Natl Acad Sci USA, 84, (1987), 4641-4), a constitutively HBV-expressing cell line were cultured in DMEM+Glutamax-I medium (Invitrogen, Carlsbad, Calif., USA), supplemented with 10% fetal bovine serum (Invitrogen) and G418 (Invitrogen) at a final concentration of 200 mg/L and maintained in 5% CO2 at 37° C.
HepG2.2.15 cells were seeded in duplicate into white, 96-well plates at 1.5×10^4 cells/well. The cells were treated with a three-fold serial dilution series of the compounds in DMSO. The final DMSO concentration in all wells was 1% and DMSO was used as no drug control.
The HBsAg chemiluminescence immunoassay (CLIA) kit (Autobio Diagnostics Co., Zhengzhou, China, Catalog number: CL0310-2) was used to measure the levels of secreted HBV antigens semi-quantitatively. For the detection 50 μL/well culture supernatant was used and HBsAg was quantified using HBsAg chemiluminescence immunoassay (CLIA) kit (Autobio Diagnostics Co., Zhengzhou, China, Catalog number: CL0310-2), 50 μL of the supernatant was transferred to the CLIA assay plate and 50 μL of enzyme conjugate reagent was added into each well. The plates were sealed and gently agitated for 1 hour at room temperature. The supernatant-enzyme-mixture was discarded and wells were washed 6 times with 300 μL of PBS. The residual liquid was removed by plating the CLIA plate […] on absorbent tissue paper. 25 μL of substrates A and B were added to each well. Luminance was measured using a luminometer (Mithras LB 940 Multimode Microplate Reader) after 10 minutes incubation. Dose-response curves were generated and the IC50 value was extrapolated by using the E-WorkBook Suite (ID Business Solutions Ltd., Guildford, UK). The IC50 was defined as the compound concentration (or conditioned media log dilution) at which HBsAg secretion was reduced by 50% compared to the no drug control.

[2] = tested on: HBV DNA; experiment: HBV DNA assay (real-time qPCR/TaqMan) in HepG2.2.15 cells; format: cell-based; details: Hepatitis B virus, 144 h, extracellular HBV DNA in supernatant, six days after initial administration, qPCR, read-out: IC50 (Anti HBV DNA production activity)
Protocol: as §1
The assay employs real-time qPCR (TaqMan) to directly measure extracellular HBV DNA copy number in the cell supernatant, HepG2.2.15 cells were plated in 96-well microtiter plates before treatment with complete medium (DMEM, Glutamax, 10% FBS, 1% Penicillin/Streptomycin, 250 μg/mL Genetycin, final DMSO concentration is 1%). Only the interior wells were utilized to reduce “edge effects” observed during cell culture, the exterior wells were filled with complete medium to help minimize sample evaporation. The HepG2.2.15 cells were treated 1 h later with various concentrations of a test compound in duplicate (top concentration used at 5 μM, 2 μM or 0.5 μM according to the HBsAg IC50 observed, with ⅓ successive dilutions (total of 10 dilutions). Six days following the initial administration of the test compound, the cell culture supernatant was collected; DNA extraction was performed by automated system (Magnapure) and then used in a real-time qPCR/TaqMan assay to determine HBV DNA copy numbers. Antiviral activity was calculated from the reduction in HBV DNA levels (IC50).

## Cc1nc(C(=O)N2Cc3nc(-c4ncccn4)ncc3C2C)sc1C (centres unmarked) [Example 10, (4,5-Dimethylthiazol-2-yl)-(5-methyl-2-pyrimidin-2-yl-5,7-dihydropyrrolo[3,4-d]pyrimidin-6-yl)methanone]
[1]
  IC50: 282 nM
[2]
  IC50: 67.6 nM

## CC1c2cnc(-c3ncccn3)nc2CN1C(=O)c1nn(C)c2ccccc12 (centres unmarked) [Example 12, (1-Methylindazol-3-yl)-(5-methyl-2-pyrimidin-2-yl-5,7-dihydropyrrolo[3,4-d]pyrimidin-6-yl)methanone]
[1]
  IC50: 158 nM
[2]
  IC50: 5.6 nM

## Cc1c(C(=O)N2Cc3nc(-c4ncccn4)ncc3C2C)oc2ccccc12 (centres unmarked) [Example 21, (3-Methylbenzofuran-2-yl)-(5-methyl-2-pyrimidin-2-yl-5,7-dihydropyrrolo[3,4-d]pyrimidin-6-yl)methanone]
[1]
  IC50: 219 nM
[2]
  IC50: 26.2 nM

## COc1cc(F)nc(N2Cc3nc(-c4ncccn4)ncc3C2C)c1 (centres unmarked) [Example 30, 6-(6-Fluoro-4-methoxy-2-pyridyl)-5-methyl-2-pyrimidin-2-yl-5,7-dihydropyrrolo[3,4-d]pyrimidine]
[1]
  IC50: 50 nM
[2]
  IC50: 6.5 nM

## CC1c2cnc(-c3ncccn3)nc2CN1c1cc(N2CCCC2)cc(F)n1 (centres unmarked) [Example 40, 6-(6-Fluoro-4-pyrrolidin-1-yl-2-pyridyl)-5-methyl-2-pyrimidin-2-yl-5,7-dihydropyrrolo[3,4-d]pyrimidine]
[1]
  IC50: 16 nM

## CC1c2cnc(-c3ncccn3)nc2CN1c1cc(N2CCCCC2)cc(F)n1 (centres unmarked) [Example 41, 6-[6-Fluoro-4-(1-piperidyl)-2-pyridyl]-5-methyl-2-pyrimidin-2-yl-5,7-dihydropyrrolo[3,4-d]pyrimidine]
[1]
  IC50: 41 nM

## CC1c2cnc(-c3ncccn3)nc2CN1c1cc(N2CCOCC2)cc(F)n1 (centres unmarked) [Example 42, 4-[2-Fluoro-6-(5-methyl-2-pyrimidin-2-yl-5,7-dihydropyrrolo[3,4-d]pyrimidin-6-yl)-4-pyridyl]morpholine]
[1]
  IC50: 40 nM

## CC1c2cnc(-c3ncccn3)nc2CN1c1cc(N2CCNCC2)cc(F)n1 (centres unmarked) [Example 43, 6-(6-Fluoro-4-piperazin-1-yl-2-pyridyl)-5-methyl-2-pyrimidin-2-yl-5,7-dihydropyrrolo[3,4-d]pyrimidine]
[1]
  IC50: 4270 nM

## CC1c2cnc(-c3ncccn3)nc2CN1c1cc(N2CCN(S(C)(=O)=O)CC2)cc(F)n1 (centres unmarked) [Example 44, 6-[6-Fluoro-4-(4-methylsulfonylpiperazin-1-yl)-2-pyridyl]-5-methyl-2-pyrimidin-2-yl-5,7-dihydropyrrolo[3,4-d]pyrimidine]
[1]
  IC50: 140 nM

## CC1c2cnc(-c3ncccn3)nc2CN1c1cc(N2CCNC(=O)C2)cc(F)n1 (centres unmarked) [Example 45, 4-[2-Fluoro-6-(5-methyl-2-pyrimidin-2-yl-5,7-dihydropyrrolo[3,4-d]pyrimidin-6-yl)-4-pyridyl]piperazin-2-one]
[1]
  IC50: 160 nM
